Common to all, as to assay: growth of human tumour cells (NCI), 48 h
The subject of assay [1] is OVCAR-5 ovarian.
Assay [2] concerns A498 renal.
Assay [3] has as its system MOLT-4 leukemia.
Assay [4] relates to UACC-257 melanoma.
For assay [5], the system named is OVCAR-8 ovarian.
Assay [6] deals with KM12 colon.
Assay [7] relates to SNB-75 CNS.
Assay [8] deals with LOX IMVI melanoma.
The subject of assay [9] is HCT-15 colon.
In assay [10] the test system is RXF 393 renal.

This note sets out measurements from PubChem BioAssay (NCI).

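Values below derive from 48-hour exposures of cells grown in 96-well plates, with endpoints linearly interpolated between the two concentrations bracketing the appropriate inhibition level. GI50 is the concentration that inhibits growth by half. The concentration for full growth arrest is given as TGI.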

Regarding `Cc1ncc2c(n1)CCC1=C2OS(=O)(=O)CC1N(C)C` (stereo not drawn), the TGI in [1], in assay [2], in assay [3], in assay [4], in assay [5] and in assay [6] was greater than 100 µM throughout. The TGI in assay [7] and in assay [8] was greater than 100 µM in each case.

For `COC(=O)C(C(=O)C(=O)Nc1nc2ccc(OC)cc2s1)c1cnc2ccccc2n1` (stereo not drawn), the TGI in [1], in [2], in assay [9], in assay [3], in [4] and in assay [10] was greater than 100 µM throughout. Also, the TGI in [6], in assay [7] and in [8] was greater than 100 µM in each case.

As to `CN(C)c1ccc(-c2nc(N)nc3c2CCCC3)cc1`, the TGI in [1], in [2], in [3], in [5], in assay [10] and in assay [6] was greater than 100 µM in each case. In addition, the TGI in assay [7] and in [8] was greater than 100 µM in each case.

For `Cc1ccc(S(=O)(=O)NC(=O)Nc2ncn[nH]2)cc1`, the TGI in [1], in [2], in [9], in assay [3], in assay [4] and in assay [5] was greater than 100 µM in each case. Besides, the TGI in assay [10], in assay [6] and in assay [7] was greater than 100 µM in each case.

For the compound `O=C1c2c[n+](Cc3ccccc3)ccc2-c2nc3ccccc3c3ccnc1c23`, the GI50 in [1] was 1.63 µM; in assay [2] it was 0.532 µM; in assay [9], 0.87 µM; in [3] it was 0.719 µM; in assay [4], 0.865 µM; in [10] it was 0.534 µM. Also, the GI50 in assay [6] is 1.06 µM; in assay [7], 0.804 µM; in assay [8], 0.583 µM. Further, the TGI in assay [1] turned out to be 10.5 µM; in [2] it was 1.97 µM; in [9], 6.18 µM; in [3], 1.89 µM; in [4], 2.33 µM; in assay [10], 1.56 µM. The results for the TGI in [6], in assay [7] and in assay [8] were 4.28 µM, 3.71 µM and 2.02 µM, respectively.

On to `Cc1nc2ccccc2c(/C=C/c2ccc(C(F)(F)F)cc2)c1C(=O)/C=C/c1ccccc1`, for which the GI50 in assay [1] is 1.86 µM; in [2], 1.69 µM; in assay [9] it was 1.1 µM; in assay [3] it was 0.508 µM; in [4], 1.61 µM; in assay [5], 1.64 µM. In addition, the GI50 was 1.46 µM in assay [10], 1.38 µM in assay [7] and 1.58 µM in assay [8]. The TGI in assay [1] stood at 3.35 µM; in assay [2] it was 3.13 µM; in assay [9], 3.16 µM; in assay [3], 5.79 µM; in [4], 3.17 µM; in assay [5] it was 4.91 µM. In addition, the TGI in [10] is 2.81 µM; in assay [7], 2.81 µM; in assay [8] it was 2.94 µM.

As for `COc1ccc(C2=NC(CO)[C@H](c3ccccc3)O2)cc1OC` (stereo partly drawn), the TGI in [1], in [2], in assay [9], in [3], in assay [4] and in [5] was greater than 100 µM in each case. Moreover, the TGI in assay [6], in assay [7] and in assay [8] was greater than 100 µM in each case.

On to `Oc1ccc(Br)cc1C=Nc1ccc(Oc2ccc(N=Cc3cc(Br)ccc3O)cc2)cc1`, for which the TGI in assay [1], in assay [2], in [3], in assay [4], in assay [5] and in assay [10] was greater than 19.6 µM in each case. For the same compound, the TGI in assay [6], in assay [7] and in assay [8] was greater than 19.6 µM each time.

With `COc1ccc(C)cc1-c1ccc(-c2cc(C)ccc2OC)o1`, the TGI in [1], in assay [2], in assay [9], in assay [3], in assay [4] and in [5] was greater than 100 µM in each case. The TGI in [6], in [7] and in assay [8] was greater than 100 µM in each case.

`CN(C)Cc1nsc(N(C)C)n1`: the TGI in [1], in [2], in assay [9], in assay [4], in assay [5] and in assay [10] was greater than 100 µM throughout. For the same compound, the TGI in [6], in assay [7] and in assay [8] was greater than 100 µM in each case.

For `C(#Cc1ccccc1C#Cc1cnccn1)c1cnccn1`, the GI50 was greater than 61.7 µM in assay [1]; 20.2 µM in [2]; 17.5 µM in [9]; 22.7 µM in assay [4]; 38.2 µM in assay [5]; greater than 100 µM in [10]. Moreover, the GI50 in assay [6] is 26.1 µM; in [7], 29.2 µM; in assay [8], 17.3 µM. In addition, the TGI was greater than 100 µM in [1]; 72.1 µM in [2]; 56 µM in assay [9]; greater than 58.6 µM in assay [4]; greater than 72.6 µM in [5]; greater than 100 µM in [10]. Besides, the TGI in assay [6] was 68.3 µM; in [7], greater than 100 µM; in [8], 53.4 µM.

On to `O=C(O)C(Cc1ccc(O)cc1)N=Cc1nc(-c2ccccc2)oc1O` (stereo not drawn), for which the TGI in assay [1], in assay [2], in assay [9], in [4], in assay [5] and in [10] was greater than 100 µM each time. Also, the TGI in [6], in assay [7] and in assay [8] was greater than 100 µM each time.
